Measured values reported in US20260060982A1, “USE OF BTK INHIBITOR AND SINGLE-DOSE DRUG” (HUBEI BIO-PHARMACEUTICAL INDUSTRIAL TECHNOLOGICAL INSTITUTE …, priority 2023, published 2026).

Key:
[1] = test system: IgM-induced calcium signaling in RAMOS cells; assay: Antagonism of IgM-induced calcium signaling in RAMOS cells (FLIPR); format: cell-based; conditions: Homo sapiens, Fluo-4D dye
Method: The specific test steps were as follows:
A. Ramos cells (ECACC) were seeded in a 384 experimental plate using cell culture medium (RPMI 1640 medium supplemented with 10% fetal bovine serum) at a density of 5×10^6 cells/mL, 20 μL per well.
C. The cell plate and the compound plate were placed into FLIPR. 10 μL was transferred from the compound plate by the FLIPR instrument and added to the cell plate. The cell plate was removed and incubated in a 37° C. incubator for 1 h.
D. One hour later, 40 μL of Fluo-4D dye (Life Technologies, formulated as 0.5× with 40 mL of HBSS and HEPES buffer) was added to the cell plate and incubated at 37° C. for 50 min.
E. 10 μL of IgM at 8×EC80 concentration was added, and the plate was read using FLIPR.
F. The IC50 results of the compounds were analyzed using EXCEL and Prism statistical software.

[2] = Phase I single-dose clinical trial, pharmacokinetics; format: in vivo; conditions: human, plasma, oral, single administration, 10 mg to 800 mg
Source text: In this example, 96 healthy Chinese aged 18 to 45 were recruited as subjects. The trial included 8 dose groups, each with 12 subjects, who were randomly divided into groups, 10 of whom received compound (I) capsules (i.e., the trial group) and 2 received placebo capsules (containing no compound (I), i.e., the control group or placebo group). […] The dosages involved in this example were all the amount of compound (I). Based on safety and exploration factors, the human MRSD (maximum recommended starting dose) of compound (I) capsule used in the example was set at 10 mg, and the human maximum recommended dose was set at 800 mg. A total of 8 dose groups were set up between the initial dose and the maximum dose (see Table 2 for the dose escalation scheme of the clinical trial): 10 mg, 25 mg, 50 mg, 100 mg, 200 mg, 400 mg, 600 mg, and 800 mg, and single administration safety and tolerability trials were conducted group by group.
The subjects fasted for 10 h before administration and took a single oral administration of compound (I) capsule or placebo capsule at the prescribed dose on the morning of the trial day. Water was prohibited within 2 h after the administration and food was prohibited within 4 h after the administration. Blood sample collection: 3.0 ml of venous blood was collected before administration (within 45 min) and at 10 min, 20 min, 0.5 h, 1 h, 1.5 h, 1.75 h, 2 h, 2.5 h, 3 h, 3.5 h, 4 h, 6 h, 8 h, 12 h, 16 h, 24 h, 36 h, 48 h, and 72 h after administration. Urine sample collection: Urine samples were collected before administration (within 2 h) and at 0-2 h, 2-4 h, 4-8 h, 8-12 h, 12-16 h, 16-24 h, 24-48 h, and 48-72 h after administration. Feces collection: Feces were collected before administration (within 3 days) and at 0-24 h, 24-48 h, and 48-72 h after administration.
The analysis was performed using the Per-protocol set. The time-dependent plasma concentration data of compound (I) capsules were processed using WinNonlin version 6.4. The main pharmacokinetic parameters of each subject were calculated using a non-compartmental model, and the linear relationship between dose and Cmax and AUC0-t was analyzed using a power function model.

[3] = test system: collagen-induced arthritis in DBA/1 mice; assay: Collagen-induced arthritis (CIA) model in mice; format: in vivo; conditions: for average body weight: after day 33
Method: Clinical symptoms of arthritis were induced in mice by injecting collagen emulsion into the tail of mice. The specific steps were as follows:
DBA/1 mice were randomly divided into 6 groups, with 10 mice in each group except the blank control group (5 mice). […] The day of the first immunization was recorded as day 0, and the subsequent days were marked in sequence. DBA/1 mice were anesthetized with isoflurane and injected subcutaneously with 50 μl of the prepared collagen emulsion (containing 200 μg of CII) at the tail (2 cm to 3 cm from the base of the tail). On day 21, the same volume of collagen emulsion was injected into the tail in the same way.
On day 28, when the average clinical score reached 1 to 2, the mice were randomly redivided into 4 treatment groups (10 mice per group) and a blank vehicle control group (10 mice per group) according to body weight and score. […] The administration was performed once daily for 14 days by gavage at 10 mL/kg. After the administration, the clinical score curve of each animal in each group was analyzed to calculate the area under the curve (AUC). The inhibition rate of each administration group relative to the blank vehicle control was calculated based on the average AUC between groups.
Clinical observation: From 7 days before immunization to 21 days after immunization, the basic health status and weight changes of DBA/1 mice were observed daily (recorded twice a week). After day 22, the health status, disease incidence, and weight changes of the mice were observed daily (recorded every two days) until the end of the experiment.
When mice began to develop symptoms of arthritis (clinical symptoms of arthritis appeared), they were scored on a scale from 0 to 4 based on the severity of the lesions (redness, swelling, joint deformation), with a maximum score of 4 for each limb and a maximum score of 16 for each animal. The scoring was performed at least three times a week.
Pathology: On day 42, mice were euthanized. The two hind limbs of the mice were taken, soaked in 10% formalin solution, decalcified with formic acid solution, embedded in paraffin, sectioned, stained with hematoxylin-eosin (HE), and observed under a microscope. The degree of joint damage was evaluated from four aspects: inflammatory cell infiltration, pannus formation, cartilage damage, and bone resorption, and scored on a scale from 0 to 4.

BTK = BTK (Homo sapiens, UniProt Q06187); assay: Inhibition of BTK kinase activity (HTRF); format: biochemical
BTK, sequence (Q06187 whole entry): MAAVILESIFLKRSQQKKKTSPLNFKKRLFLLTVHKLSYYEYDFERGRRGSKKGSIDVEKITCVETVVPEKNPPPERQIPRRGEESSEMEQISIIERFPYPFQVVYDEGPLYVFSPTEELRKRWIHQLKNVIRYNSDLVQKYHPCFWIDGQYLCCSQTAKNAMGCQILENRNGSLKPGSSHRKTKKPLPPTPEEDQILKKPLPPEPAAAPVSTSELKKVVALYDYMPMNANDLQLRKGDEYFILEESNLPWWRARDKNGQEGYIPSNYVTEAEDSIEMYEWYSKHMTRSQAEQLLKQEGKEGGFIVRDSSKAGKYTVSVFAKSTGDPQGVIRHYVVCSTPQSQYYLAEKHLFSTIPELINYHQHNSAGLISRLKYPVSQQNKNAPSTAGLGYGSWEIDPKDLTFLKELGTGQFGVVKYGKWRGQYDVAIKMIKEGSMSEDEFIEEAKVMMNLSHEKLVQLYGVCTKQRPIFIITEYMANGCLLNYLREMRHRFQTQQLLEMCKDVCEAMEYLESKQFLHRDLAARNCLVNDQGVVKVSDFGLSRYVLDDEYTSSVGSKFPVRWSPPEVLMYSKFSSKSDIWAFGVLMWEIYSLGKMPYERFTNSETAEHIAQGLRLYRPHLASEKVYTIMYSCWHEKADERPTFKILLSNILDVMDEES
Method: The specific experimental steps were as follows:
The BTK kinase/peptide mix solution was added to the assay plate at 5 μL per well, and centrifuged at 1000 rpm for 1 min. The assay plate was incubated at 23° C. for 15 min.
C. An ATP solution (3968 μL of 1.33× kinase reaction buffer and […] of 10 mM ATP) was prepared, added to the assay plate at 2.5 μL per well, and centrifuged at 1000 rpm for 1 min. The assay plate was incubated at 23° C. for 90 min.
The assay plate was incubated at 23° C. for 60 min and read on the Envision multilabel reader.
E. IC50 results were analyzed using XLFIT5 (Formula 205) from IDBS.

C=CC(=O)N1CCC[C@@H](n2nc(-c3ccc(Oc4ccccn4)cc3)c3c(N)n[nH]c(=O)c32)C1 [compound (I), (R)-1-(1-acryloylpiperidin-3-yl)-4-amino-3-(4-(pyridin-2-yloxy)phenyl)-1H-pyrazolo[3,4-d]pyridazin-7(6H)-one]
IC50 [1]: 55 ± 3.34 nM
Cmax ([2]; read-out: Cmax, range over dose groups): 46.1 to 5060 ng/mL
MRT ([2]; read-out: MRT, range over dose groups): 1.53 to 4.25 h
half-life ([2]; read-out: T1/2, range over dose groups): 0.847 to 8.67 h
Tmax ([2]; read-out: Tmax, range over dose groups): 1.03 to 2 h
inflammation inhibition rate (AUC of clinical score vs blank vehicle control) ([3]; 1 mg/kg once daily by gavage for 14 days): 65.5%
average body weight ([3]; 1 mg/kg): remained basically unchanged
inflammation inhibition rate (AUC of clinical score vs blank vehicle control) ([3]; 3 mg/kg once daily by gavage for 14 days): 82.4%
average body weight ([3]; 3 mg/kg): increased
inflammation inhibition rate (AUC of clinical score vs blank vehicle control) ([3]; 10 mg/kg once daily by gavage for 14 days): 83.9%
average body weight ([3]; 10 mg/kg): increased
pathology of foot joint bone tissue ([3]; three dose groups (1, 3, and 10 mg/kg), day 42): only mild inflammation
IC50 (BTK): ≤ 4 nM
